According to the NIST ThermoML archive (doi:10.1021/je700411p):

Assays:
[1] = refractive index (Na D-line) (dimensionless); conditions: 298.15 K; 101.33 kPa; Liquid; Standard Abbe refractometry
[2] = Liquid; for mass density: 298.15 K, 101.33 kPa

CC(=O)O [acetic acid]
Conditions | mass density [kg/m3] | refractive index
[1] | – | 1.3696
[2] | 1043.9 | –

[2], Ebulliometric method (Recirculating still)
Conditions | vapor or sublimation pressure [kPa]
328.56 K | 9.98
330.65 K | 10.97
332.65 K | 11.98
336.23 K | 13.97
339.41 K | 15.97
342.25 K | 17.98
344.81 K | 19.98
347.19 K | 21.98
349.4 K | 23.98
352.43 K | 26.97
355.18 K | 29.96
357.72 K | 32.98
360.09 K | 35.94
362.26 K | 38.96
365 K | 42.93
366.3 K | 44.95
369.3 K | 49.94
372.09 K | 54.93
374.63 K | 59.83
377.03 K | 64.87
379.25 K | 69.84
381.39 K | 74.82
383.35 K | 79.71
385.23 K | 84.52
387.1 K | 89.81
388.77 K | 94.52
390.91 K | 101.3

CCCCO [butan-1-ol]
Conditions | mass density [kg/m3] | refractive index
[1] | – | 1.396
[2] | 805.6 | –

Conditions | vapor or sublimation pressure [kPa]
[2], 390.46 K | 101.3

CCCCOC(C)=O [butyl ethanoate]
Conditions | mass density [kg/m3] | refractive index
[1] | – | 1.3916
[2] | 876.02 | –

[2], Ebulliometric method (Recirculating still)
Conditions | vapor or sublimation pressure [kPa]
334.36 K | 9.99
336.53 K | 10.98
338.56 K | 11.99
342.2 K | 13.97
345.47 K | 15.99
348.37 K | 17.97
351.02 K | 19.98
353.45 K | 21.97
355.72 K | 23.97
357.84 K | 25.98
359.79 K | 27.92
362.58 K | 30.98
365.1 K | 33.92
367.5 K | 36.96
369.74 K | 39.97
373.18 K | 44.92
376.31 K | 49.9
379.18 K | 54.92
381.89 K | 59.93
384.4 K | 64.95
386.74 K | 69.92
388.96 K | 74.95
391.05 K | 79.91
393.02 K | 84.83
394.94 K | 89.87
396.72 K | 94.73
399.05 K | 101.3
